Laboratory results as given in patent US20220112187A1, “PYRAZOLOPYRIDINE AMINE COMPOUNDS FOR THE TREATMENT OF AUTOIMMUNE DISEASE” (Hoffmann-La Roche Inc., priority 2018, published 2022).

Each compound was assayed against T1, human TLR9 (Homo sapiens, UniProt Q9NR96) (assay: HEK293-Blue-hTLR-9 cells assay (SEAP reporter, ODN2006 stimulation)). Conditions: HEK293-Blue-hTLR9 cells, ODN2006 ligand, 20 hrs incubation.
T1 sequence (Q9NR96 26-1032): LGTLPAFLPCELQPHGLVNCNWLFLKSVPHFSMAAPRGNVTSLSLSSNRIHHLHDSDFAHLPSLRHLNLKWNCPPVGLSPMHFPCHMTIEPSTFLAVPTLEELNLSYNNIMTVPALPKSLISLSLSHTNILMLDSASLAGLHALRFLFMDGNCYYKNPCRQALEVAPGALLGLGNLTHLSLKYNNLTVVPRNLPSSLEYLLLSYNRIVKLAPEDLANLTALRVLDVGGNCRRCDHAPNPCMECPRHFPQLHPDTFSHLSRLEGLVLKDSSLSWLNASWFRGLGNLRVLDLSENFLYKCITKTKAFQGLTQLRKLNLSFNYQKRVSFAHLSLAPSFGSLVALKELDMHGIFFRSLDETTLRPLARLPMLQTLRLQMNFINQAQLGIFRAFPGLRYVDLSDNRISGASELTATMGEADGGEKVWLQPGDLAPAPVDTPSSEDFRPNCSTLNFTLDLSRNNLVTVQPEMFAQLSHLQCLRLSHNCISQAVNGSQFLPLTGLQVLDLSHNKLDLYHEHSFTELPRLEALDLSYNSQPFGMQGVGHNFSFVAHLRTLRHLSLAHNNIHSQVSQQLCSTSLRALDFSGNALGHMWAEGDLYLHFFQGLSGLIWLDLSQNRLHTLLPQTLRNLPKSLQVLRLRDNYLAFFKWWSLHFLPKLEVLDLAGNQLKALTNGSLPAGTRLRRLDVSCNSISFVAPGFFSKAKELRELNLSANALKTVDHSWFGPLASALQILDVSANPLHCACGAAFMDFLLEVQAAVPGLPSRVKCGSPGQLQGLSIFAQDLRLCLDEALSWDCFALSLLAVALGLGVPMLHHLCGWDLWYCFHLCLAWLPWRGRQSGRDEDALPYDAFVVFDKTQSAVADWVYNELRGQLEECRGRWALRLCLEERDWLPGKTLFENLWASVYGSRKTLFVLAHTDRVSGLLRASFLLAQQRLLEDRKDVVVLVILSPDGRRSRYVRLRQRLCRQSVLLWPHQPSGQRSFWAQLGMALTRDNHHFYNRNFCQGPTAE
Assay type: cell-based
From the text: A stable HEK293-Blue-hTLR-9 cell line was purchased from InvivoGen (Cat. #: hkb-htlr9, San Diego, Calif., USA). These cells were originally designed for studying the stimulation of human TLR9 by monitoring the activation of NF-κB. A SEAP (secreted embryonic alkaline phosphatase) reporter gene was placed under the control of the IFN-β minimal promoter fused to five NF-κB and AP-1-binding sites. The SEAP was induced by activating NF-κB and AP-1 via stimulating HEK-Blue hTLR9 cells with TLR9 ligands. Therefore the reporter expression was declined by TLR9 antagonist under the stimulation of a ligand, such as ODN2006 (Cat. #: tlr1-2006-1, Invivogen, San Diego, Calif., USA), for incubation of 20 hrs. The cell culture supernatant SEAP reporter activity was determined using QUANTI-Blue™ kit (Cat. #: rep-qb1, Invivogen, San Diego, Calif., USA) at a wavelength of 640 nm, a detection medium that turns purple or blue in the presence of alkaline phosphatase.
HEK293-Blue-hTLR9 cells were incubated at a density of 250,000˜450,000 cells/mL in a volume of 170 μL in a 96-well plate in Dulbecco's Modified Eagle's medium (DMEM) containing 4.5 g/L glucose, 50 U/mL penicillin, […], […], 2 mM L-glutamine, 10% (v/v) heat-inactivated fetal bovine serum with addition of 20 μL test compound in a serial dilution in the presence of final DMSO at 1% and 10 μL of 20 uM ODN2006 in above DMEM, perform incubation under 37° C. in a CO2 incubator for 20 hrs. Then 20 μL of the supernatant from each well was incubated with 180 μL Quanti-blue substrate solution at 37° C. for 2 hrs and the absorbance was read at 620-655 nm using a spectrophotorneter. The signalling pathway that TLR9 activation leads to downstream NF-κB activation has been widely accepted, and therefore similar reporter assay was modified for evaluating TLR9 antagonist.

| Structure (SMILES) | IC50 [nM] |
| --- | --- |
| C[C@@H]1CN(c2ccc(C#N)n3nccc23)C[C@H](CN2CC3CCNCC3C2)O1 (stereo partly drawn) [Example 49, 4-[(2S,6R)-2-(1,3,3a,4,5,6,7,7a-octahydropyrrolo[3,4-c]pyridin-2-ylmethyl)-6-methyl-morpholin-4-yl]pyrazolo[1,5-a]pyridine-7-carbonitrile] | 120 |
| CC1CC(N)CCN1C[C@H]1CN(c2ccc(C#N)n3nccc23)C[C@@H](C)O1 (stereo partly drawn) [Example 51, 4-[(2S,6R)-2-[(4-amino-2-methyl-1-piperidyl)methyl]-6-methyl-morpholin-4-yl]pyrazolo[1,5-a]pyridine-7-carbonitrile] | 230 |
| C[C@@H]1CN(c2ccc(C#N)n3nccc23)C[C@H](CN2CC3CNCCC32)O1 (stereo partly drawn) [Example 52, 4-[(2S,6R)-2-(3,7-diazabicyclo[4.2.0]octan-7-ylmethyl)-6-methyl-morpholin-4-yl]pyrazolo[1,5-a]pyridine-7-carbonitrile] | 260 |
| C[C@@H]1CN(c2ccc(C#N)n3nccc23)C[C@H](CN2CCC3(CCCN3)CC2)O1 [Example 53, 4-[(2S,6R)-2-(1,8-diazaspiro[4.5]decan-8-ylmethyl)-6-methyl-morpholin-4-yl]pyrazolo[1,5-a]pyridine-7-carbonitrile] | 160 |
| C[C@@H]1CN(c2ccc(C#N)n3nccc23)C[C@H](CN2CCC(N3CCCC3)CC2)O1 [Example 54, 4-[(2R,6S)-2-methyl-6-[(4-pyrrolidin-1-yl-1-piperidyl)methyl]morpholin-4-yl]pyrazolo[1,5-a]pyridine-7-carbonitrile] | 510 |
| C[C@@H]1CN(c2ccc(C#N)n3nccc23)C[C@H](CN2CCC23CNC3)O1 [Example 55, 4-[(2S,6R)-2-(1,6-diazaspiro[3.3]heptan-1-ylmethyl)-6-methyl-morpholin-4-yl]pyrazolo[1,5-a]pyridine-7-carbonitrile] | 25000 |
| C[C@@H]1CN(c2ccc(C#N)n3nccc23)C[C@H](CN2CC3CCNCC32)O1 (stereo partly drawn) [Example 56, 4-[(2S,6R)-2-(3,8-diazabicyclo[4.2.0]octan-8-ylmethyl)-6-methyl-morpholin-4-yl]pyrazolo[1,5-a]pyridine-7-carbonitrile] | 850 |
| C[C@@H]1CN(c2ccc(C#N)n3nccc23)C[C@H](CN2C3CNCC2COC3)O1 [Example 57, 4-[(2R,6S)-2-methyl-6-(3-oxa-7,9-diazabicyclo[3.3.1]nonan-9-ylmethyl)morpholin-4-yl]pyrazolo[1,5-a]pyridine-7-carbonitrile] | 10000 |
| C[C@@H]1CN(c2ccc(C#N)n3nccc23)C[C@H](CN2C3COCC2CC(N)C3)O1 (stereo partly drawn) [Example 58, 4-[(2S,6R)-2-[(7-amino-3-oxa-9-azabicyclo[3.3.1]nonan-9-yl)methyl]-6-methyl-morpholin-4-yl]pyrazolo[1,5-a]pyridine-7-carbonitrile] | 390 |
| C[C@@H]1CN(c2ccc(C#N)n3nccc23)C[C@H](CN2CCNCC2Cc2ccccc2)O1 (stereo partly drawn) [Example 59, 4-[(2S,6R)-2-[(2-benzylpiperazin-1-yl)methyl]-6-methyl-morpholin-4-yl]pyrazolo[1,5-a]pyridine-7-carbonitrile] | 1500 |
| C[C@@H]1CN(c2ccc(C#N)n3nccc23)C[C@H](CN2CCC3(CC2)CNCCO3)O1 [Example 60, 4-[(2R,6S)-2-methyl-6-(1-oxa-4,9-diazaspiro[5.5]undecan-9-ylmethyl)morpholin-4-yl]pyrazolo[1,5-a]pyridine-7-carbonitrile] | 180 |
| C[C@@H]1CN(c2ccc(C#N)n3nccc23)C[C@H](CN2CCCC3CNCC32)O1 (stereo partly drawn) [Example 61, 4-[(2S,6R)-2-(2,3,4,4a,5,6,7,7a-octahydropyrrolo[3,4-b]pyridin-1-ylmethyl)-6-methyl-morpholin-4-yl]pyrazolo[1,5-a]pyridine-7-carbonitrile] | 6100 |
| C[C@@H]1CN(c2ccc(C#N)n3nccc23)C[C@H](CN2CC[C@@H]3CNCC32)O1 (stereo partly drawn) [Example 62, 4-[(2R,6S)-2-methyl-6-[[cis-(3aR,6aR)-3,3a,4,5,6,6a-hexahydro-2H-pyrrolo[3,4-b]pyrrol-1-yl]methyl]morpholin-4-yl]pyrazolo[1,5-a]pyridine-7-carbonitrile] | 2400 |
| C[C@@H]1CN(c2ccc(C#N)n3nccc23)C[C@H](CN2CCC[C@@H]3NCCC32)O1 (stereo partly drawn) [Example 63, 4-[(2R,6S)-2-methyl-6-[[cis-(3aS,7aS)-1,2,3,3a,5,6,7,7a-octahydropyrrolo[3,2-b]pyridin-4-yl]methyl]morpholin-4-yl]pyrazolo[1,5-a]pyridine-7-carbonitrile] | 5900 |
| C[C@@H]1CN(c2ccc(C#N)n3nccc23)C[C@H](CN2CCCC3NCCCC32)O1 (stereo partly drawn) [Example 64, 4-[(2S,6R)-2-(3,4,4a,5,6,7,8,8a-octahydro-2H-1,5-naphthyridin-1-ylmethyl)-6-methyl-morpholin-4-yl]pyrazolo[1,5-a]pyridine-7-carbonitrile] | 2200 |
| C[C@@H]1CN(c2ccc(C#N)n3nccc23)C[C@H](CN2C3CCCC2CC(N)C3)O1 (stereo partly drawn) [Example 65, Endo-4-[(2S,6R)-2-[(3-amino-9-azabicyclo[3.3.1]nonan-9-yl)methyl]-6-methyl-morpholin-4-yl]pyrazolo[1,5-a]pyridine-7-carbonitrile] | 140 |
| C[C@@H]1CN(c2ccc(C#N)n3nccc23)C[C@H](CN2C3CCCC2CC(N)C3)O1 (stereo partly drawn) [Example 66, Exo-4-[(2S,6R)-2-[(3-amino-9-azabicyclo[3.3.1]nonan-9-yl)methyl]-6-methyl-morpholin-4-yl]pyrazolo[1,5-a]pyridine-7-carbonitrile] | 120 |
| C[C@@H]1CN(c2ccc(C#N)n3ncc(F)c23)C[C@H](CN2CCCC3(CCNCC3)C2)O1 [Example 67, 4-[(2S,6R)-2-(2,9-diazaspiro[5.5]undecan-2-ylmethyl)-6-methyl-morpholin-4-yl]-3-fluoro-pyrazolo[1,5-a]pyridine-7-carbonitrile] | 87 |
| C[C@@H]1CN(c2ccc(C#N)n3ncc(F)c23)C[C@H](CN2CCCC3(CCNC3)C2)O1 (stereo partly drawn) [Example 68, 3-fluoro-4-[(2S,6R)-2-(2,7-diazaspiro[4.5]decan-7-ylmethyl)-6-methyl-morpholin-4-yl]pyrazolo[1,5-a]pyridine-7-carbonitrile] | 110 |
| C[C@@H]1CN(c2ccc(C#N)n3ncc(F)c23)C[C@H](CN2CCC3(CCCNC3)C2)O1 (stereo partly drawn) [Example 69, 3-fluoro-4-[(2S,6R)-2-(2,9-diazaspiro[4.5]decan-2-ylmethyl)-6-methyl-morpholin-4-yl]pyrazolo[1,5-a]pyridine-7-carbonitrile] | 130 |
| C[C@@H]1CN(c2ccc(C#N)n3nccc23)C[C@H](CN2CCC3NCC3C2)O1 (stereo partly drawn) [Example 70, 4-[(2S,6R)-2-(3,7-diazabicyclo[4.2.0]octan-3-ylmethyl)-6-methyl-morpholin-4-yl]pyrazolo[1,5-a]pyridine-7-carbonitrile] | 200 |
| C[C@@H]1CN(c2ccc(C#N)n3nccc23)C[C@H](CN2CCOC3(CCNCC3)C2)O1 [Example 71, 4-[(2R,6S)-2-methyl-6-(1-oxa-4,9-diazaspiro[5.5]undecan-4-ylmethyl)morpholin-4-yl]pyrazolo[1,5-a]pyridine-7-carbonitrile] | 510 |
| C[C@@H]1CN(c2ccc(C#N)n3nccc23)C[C@H](CN2CCC(N)(c3ccccc3)CC2)O1 [Example 73, 4-[(2S,6R)-2-[(4-amino-4-phenyl-1-piperidyl)methyl]-6-methyl-morpholin-4-yl]pyrazolo[1,5-a]pyridine-7-carbonitrile] | 220 |
